Each molecule was assayed against T1, human recombinant OX2 (hOX2) receptor expressed in CHO cells (Homo sapiens, UniProt O43614) (assay: IP-1 accumulation assay (IP-One HTRF) in hOX2-CHO cells). Conditions: 60 min at 37° C., 11 points CRC, response as % of maximal OX-A response.
T1 construct: host or cells: CHO cells (hOX2-CHO)
T1 sequence (O43614 1-444): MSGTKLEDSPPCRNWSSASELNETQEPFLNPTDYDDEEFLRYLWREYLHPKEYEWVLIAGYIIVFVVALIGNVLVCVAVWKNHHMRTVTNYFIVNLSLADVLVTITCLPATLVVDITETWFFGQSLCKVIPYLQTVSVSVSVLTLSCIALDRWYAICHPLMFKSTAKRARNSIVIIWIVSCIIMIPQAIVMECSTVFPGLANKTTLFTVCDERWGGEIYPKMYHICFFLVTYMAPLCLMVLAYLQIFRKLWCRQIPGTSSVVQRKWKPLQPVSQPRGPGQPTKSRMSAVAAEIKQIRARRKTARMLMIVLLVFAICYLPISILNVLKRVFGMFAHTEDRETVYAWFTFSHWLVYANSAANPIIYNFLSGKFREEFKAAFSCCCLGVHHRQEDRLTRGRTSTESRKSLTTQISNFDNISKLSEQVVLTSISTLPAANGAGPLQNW
Format: cell-based
Method: The accumulation of Inositol-1 Monophosphate (IP-1) was measured using IP-One HTRF® Terbium cryptate based assay (Cisbio) in human recombinant OX1 (hOX1) and at OX2 (hOX2) receptors expressed in CHO cells (DiscoverX) according to the manufacturer's instructions for cells tested in suspension.
hOX1-CHO and hOX2-CHO cells were seeded into white 384-well plates at a density of 20,000 cells/well in Hank's Balanced Salt Solution (HBSS) containing 20 mM HEPES pH 7.4, 50 mM, LiCl and 0.1% and Bovine Serum Albumin (BSA).
Compounds of the present disclosure were tested in a 11 points concentration response curve (CRC) serially diluted in neat DMSO at 200 fold concentrations and added by Echo acoustic liquid handling (Labcyte) to the cells (0.5% DMSO final in the assay). After 60 min of incubation at 37° C. detection reagents, IP1-d2 tracer and anti-IP1-cryptate were diluted in lysis buffer according to the manufacturer's descriptions and added to the cells.
Following 60 min incubation at room temperature, time-resolved fluorescence (HTRF) was measured at 615 nm and 665 nm by Envision Multilabel reader (Perkin Elmer) and the HTRF ratio (A665/A615x104) was calculated.
The IP-1 accumulation response was expressed as percentage of the maximal OX-A response.
Curve fitting and EC50 estimations were carried out using a four-parameter logistic model using XLfit Software. Mean data of EC50 are calculated from at least two independent experiments performed in duplicates.
In the Tables, below Category A corresponds to compounds displaying an […]<100 nM, Category B between 100 nM and 1,000 nM, Category C between 1,000 nM and 10,000 nM and Category D above 10,000 nM.

`Cc1cc(C(CNS(=O)(=O)CF)CO[C@H]2CC[C@@H](c3cccc(F)c3)CC2)c(=O)n(C)c1` (stereo partly drawn) [Example 5m, N-[2-(1,5-dimethyl-2-oxo-1,2-dihydropyridin-3-yl)-3-{[(CIS)-4-(3-fluorophenyl)cyclohexyl]oxy}propyl]-1-fluoromethanesulfonamide] and `Cc1cc(C(CNS(C)(=O)=O)CO[C@H]2CC[C@@H](c3cccc(F)c3)CC2)c(=O)n(C)c1` (single isomer, unassigned; isomer 1) [Example 5c, (R or S) N-[2-(1,5-dimethyl-2-oxo-1,2-dihydropyridin-3-yl)-3-{[(CIS)-4-(3-fluorophenyl)cyclohexyl]oxy}propyl]methanesulfonamide—Isomer 1] cannot be ordered by EC50: under 100 nM for the first, under 100 nM for the second.

`Cc1cc(C)[n+]([O-])c(C(CNS(C)(=O)=O)CO[C@H]2CC[C@@H](c3ccccc3)CC2)c1` (single isomer, unassigned; isomer 1) [Example 5k, (R or S) 2-[1-methanesulfonamido-3-{[(CIS)-4-phenylcyclohexyl]oxy}propan-2-yl]-4,6-dimethylpyridin-1-ium-1-olate—Isomer 1] and `Cc1cc(C)c(=O)n(C(CNS(C)(=O)=O)CO[C@H]2CC[C@@H](c3ccccc3)CC2)c1` (stereo partly drawn) [Example 2s, N-[2-(3,5-dimethyl-2-oxo-1,2-dihydropyridin-1-yl)-3-{[(CIS)-4-phenylcyclohexyl]oxy}propyl]methanesulfonamide] cannot be ordered by EC50: under 100 nM for the first, under 100 nM for the second.

`COCCS(=O)(=O)NCC(CO[C@H]1CC[C@@H](c2cccc(F)c2)CC1)n1cc(C)cc(C)c1=O` (stereo partly drawn) [Example 2ax, N-[2-(3,5-dimethyl-2-oxo-1,2-dihydropyridin-1-yl)-3-{[(CIS)-4-(3-fluorophenyl)cyclohexyl]oxy}propyl]-2-methoxyethane-1-sulfonamide] and `Cc1cc(C)c(=O)n(C(CNS(=O)(=O)CF)CO[C@H]2CC[C@@H](c3cccc(F)c3)CC2)c1` (stereo partly drawn) [Example 2at, N-[2-(3,5-dimethyl-2-oxo-1,2-dihydropyridin-1-yl)-3-{[(CIS)-4-(3-fluorophenyl)cyclohexyl]oxy}propyl]-1-fluoromethanesulfonamide] cannot be ordered by EC50: under 100 nM for the first, under 100 nM for the second.

`Cc1cc(C)c(=O)n(C(CNS(C)(=O)=O)COC2CCN(c3ncc(F)cn3)CC2)c1` (single isomer, unassigned; isomer 1) [Example 2az, (R or S) N-[2-(3,5-dimethyl-2-oxo-1,2-dihydropyridin-1-yl)-3-{[1-(5-fluoropyrimidin-2-yl)piperidin-4-yl]oxy}propyl]methanesulfonamide-Isomer 1] and `Cc1cc(C)c(=O)n(C(CNS(C)(=O)=O)CO[C@H]2CC[C@@H](c3cccc(F)c3)CC2)c1` (single isomer, unassigned; isomer 2) [Example 2ag, (S or R) N-[2-(3,5-dimethyl-2-oxo-1,2-dihydropyridin-1-yl)-3-{[(CIS)-4-(3-fluorophenyl)cyclohexyl]oxy}propyl]methanesulfonamide-Isomer 2] fall in the same range of EC50: 1000 to 10000 nM for the first, 1000 to 10000 nM for the second.

First: CS(=O)(=O)NCC(CO[C@H]1CC[C@@H](c2ccccc2)CC1)n1cccc(C#N)c1=O (stereo partly drawn) [Example 2e, N-[2-(3-cyano-2-oxo-1,2-dihydropyridin-1-yl)-3-{[(CIS)-4-phenylcyclohexyl]oxy}propyl]methanesulfonamide]
Second: CCc1cccn(C(CNS(C)(=O)=O)CO[C@H]2CC[C@@H](c3ccccc3)CC2)c1=O (single isomer, unassigned; isomer 2) [Example 2b, (S or R) N-[2-(3-ethyl-2-oxo-1,2-dihydropyridin-1-yl)-3-{[(CIS)-4-phenylcyclohexyl]oxy}propyl]methanesulfonamide-Isomer 2]
The EC50 of the first is higher: 1000 to 10000 nM for the first, 100 to 1000 nM for the second.

First: CS(=O)(=O)NCC(CO[C@H]1CC[C@@H](c2ccccc2)CC1)c1cccn2cnnc12 (stereo partly drawn) [Example 5f, N-(3-{[(CIS)-4-phenylcyclohexyl]oxy}-2-{[1,2,4]triazolo[4,3-a]pyridin-8-yl}propyl)methanesulfonamide]
Second: Cn1cccc(C(CNS(C)(=O)=O)CO[C@H]2CC[C@@H](c3ccccc3)CC2)c1=O (stereo partly drawn) [Example 4, N-[2-(1-methyl-2-oxo-1,2-dihydropyridin-3-yl)-3-{[(CIS)-4-phenylcyclohexyl]oxy}propyl]methanesulfonamide]
The EC50 of the first is lower: 100 to 1000 nM for the first, 1000 to 10000 nM for the second.

`Cc1cc(C)c(=O)n(C(CNS(=O)(=O)C2CC2)CO[C@H]2CC[C@@H](c3cccc(F)c3)CC2)c1` (stereo partly drawn) [Example 2al, N-[2-(3,5-dimethyl-2-oxo-1,2-dihydropyridin-1-yl)-3-{[(CIS)-4-(3-fluorophenyl)cyclohexyl]oxy}propyl]cyclopropanesulfonamide] and `Cc1cc(C)c(=O)n(C(CNS(C)(=O)=O)CO[C@H]2CC[C@@H](c3cccc(F)c3)CC2)c1` (single isomer, unassigned; isomer 1) [Example 2af, (R or S) N-[2-(3,5-dimethyl-2-oxo-1,2-dihydropyridin-1-yl)-3-{[(CIS)-4-(3-fluorophenyl)cyclohexyl]oxy}propyl]methanesulfonamide-Isomer 1] cannot be ordered by EC50: under 100 nM for the first, under 100 nM for the second.

Compared with `CS(=O)(=O)NCC(CO[C@H]1CC[C@@H](c2ccccc2)CC1)n1cc(Cl)ccc1=O` (stereo partly drawn) [Example 2p, N-[2-(5-chloro-2-oxo-1,2-dihydropyridin-1-yl)-3-{[(CIS)-4-phenylcyclohexyl]oxy}propyl]methanesulfonamide], `Cc1ccc(=O)n(C(CNS(C)(=O)=O)CO[C@H]2CC[C@@H](c3ccccc3)CC2)c1` (stereo partly drawn) [Example 2i, N-[2-(5-methyl-2-oxo-1,2-dihydropyridin-1-yl)-3-{[(CIS)-4-phenylcyclohexyl]oxy}propyl]methanesulfonamide] is lower in EC50: 1000 to 10000 nM for the first, 100 to 1000 nM for the second. The second is the more potent here.

`Cc1cc(C(CNS(C)(=O)=O)CO[C@H]2CC[C@@H](c3cccc(F)c3)CC2)c(=O)n(C(F)F)c1` (single isomer, unassigned; isomer 1) [Example 5y, (R or S) N-[2-[1-(difluoromethyl)-5-methyl-2-oxo-1,2-dihydropyridin-3-yl]-3-{[(CIS)-4-(3-fluorophenyl)cyclohexyl]oxy}propyl]methanesulfonamide—Isomer 1] and `Cc1cc(C(CNS(C)(=O)=O)CO[C@H]2CC[C@@H](c3cccc(F)c3)CC2)c(=O)n(C2CC2)c1` (stereo partly drawn) [Example 5v, N-[2-(1-cyclopropyl-5-methyl-2-oxo-1,2-dihydropyridin-3-yl)-3-{[(CIS)-4-(3-fluorophenyl)cyclohexyl]oxy}propyl]methanesulfonamide] cannot be ordered by EC50: under 100 nM for the first, under 100 nM for the second.

`Cc1cc(-c2cccnc2)cn(C(CNS(C)(=O)=O)CO[C@H]2CC[C@@H](c3ccccc3)CC2)c1=O` (stereo partly drawn) [Example 6a, N-(2-{5-methyl-6-oxo-1,6-dihydro-[3,3′-bipyridin]-1-yl}-3-{[(CIS)-4-phenylcyclohexyl]oxy}propyl) methanesulfonamide] and `Cc1cc(C)c(=O)n(C(CNS(C)(=O)=O)CO[C@H]2CC[C@@H](c3ccccc3)CC2)c1` (single isomer, unassigned; isomer 2) [Example 2u, (S or R) N-[2-(3,5-dimethyl-2-oxo-1,2-dihydropyridin-1-yl)-3-{[(CIS)-4-phenylcyclohexyl]oxy}propyl]methanesulfonamide-Isomer 2] fall in the same range of EC50: 1000 to 10000 nM for the first, 1000 to 10000 nM for the second.

`CS(=O)(=O)NCC(Cc1cccc(-c2ccccc2)c1)n1ccccc1=O` (stereo not drawn) [Example 8a, N-(3-{[1,1′-biphenyl]-3-yl}-2-(2-oxo-1,2-dihydropyridin-1-yl)propyl)methanesulfonamide] and `Cc1ccn(C(CNS(C)(=O)=O)CO[C@H]2CC[C@@H](c3ccccc3)CC2)n1` (stereo partly drawn) [Example 2aa, N-[2-(3-methyl-1H-pyrazol-1-yl)-3-{[(CIS)-4-phenylcyclohexyl]oxy}propyl]methanesulfonamide] cannot be ordered by EC50: over 10000 nM for the first, over 10000 nM for the second.

First: Cc1cc(C)c(=O)n(C(CNS(=O)(=O)CC(F)(F)F)CO[C@H]2CC[C@@H](c3cccc(F)c3)CC2)c1 (stereo partly drawn) [Example 2ap, N-[2-(3,5-dimethyl-2-oxo-1,2-dihydropyridin-1-yl)-3-{[(CIS)-4-(3-fluorophenyl)cyclohexyl]oxy}propyl]-2,2,2-trifluoroethane-1-sulfonamide]
Second: Cc1cc(C)c(=O)n(C(CNS(=O)(=O)CF)CO[C@H]2CC[C@@H](c3cccc(F)c3)CC2)c1 (single isomer, unassigned; isomer 1) [Example 2au, (R or S) N-[2-(3,5-dimethyl-2-oxo-1,2-dihydropyridin-1-yl)-3-{[(CIS)-4-(3-fluorophenyl)cyclohexyl]oxy}propyl]-1-fluoromethanesulfonamide-Isomer 1]
The EC50 of the first is higher: 100 to 1000 nM for the first, under 100 nM for the second. The second is the more potent here.
